Test results taken from paper PMC3723855, “R31C GNRH1 Mutation and Congenital Hypogonadotropic Hypogonadism” (PLoS ONE, 2013).

Test system: LbetaT2 cells
Experiment: Intracellular calcium mobilization (Fura2) in LbetaT2 cells
Assay type: cell-based, murine
Conditions: pre-treatment with 100 nM cetrorelix; data not shown
Procedure: Figure 5 Effect of treatments on intracellular calcium mobilization. Cells were loaded with Fura 2-AM. At the time of the experiment 100 µM EGTA was added 30 sec before addition of 300 µM of CaCl2 (Ca^2+) to the medium as indicated, and cells were then stimulated with 10 nM of wild type (WT), mutant (R31C) or equimolar combination (10 nM WT +10 nM R31C) or vehicle for 3 min. In the upper panel, representative curves of single cell recording. Each experiment mean was analysed using One-way ANOVA followed by Tukey's Multiple comparison test. In the lower panels, histograms show the means ± SEM (n = 4) of the response to ligands as calcium peak and as area under the curve (AUC). […] Representative of at least three independent experiments, *p<0.05.
LbetaT2 cells were kept in serum free medium overnight and then loaded with 2 µM Fura2-AM for 45 min at 37°C. The experiment was conducted in HEPES buffer (in mM; 116 NaCl, 5.6 KCl, 1.2 MgCl2, 5 NaHCO3, 1 NaH2PO4, 20 HEPES ph 7.4) in presence of extracellular Ca^2+ (EGTA 100 µM + CaCl2 300 µM). Single images of fluorescent emission at 510 nm under excitation at 340 and 380 nm were taken every 5 Sec. Changes in [Ca^2+]i in response to GnRHs were monitored using the Fura2 340/380 fluorescence ratio. Basal ratio was arbitrarily considered as 1. Ca^2+ responses over basal level were given either as maximal rise of [Ca^2+]i or as area under the curve (for 2 min after agonist addition).

cetrorelix [reference compound]
calcium responses to WT and R31C after antagonist pre-treatment: abolished responses to both ligands
